Measurements as given in patent US9937183B2, “Antimicrobial compounds and methods of making and using the same” (priority 2013, dated 2018).
≈ marks a conversion by molar mass, not a printed value. Where two headings read alike, the source gives them in different places.

Legend:
Format in all cases: cell-based
E. coli ATCC25922 = assay: MIC, microtiter-based liquid assay (CLSI); conditions: Escherichia coli
E. coli 1705878 = assay: MIC, microtiter-based liquid assay (CLSI); conditions: Escherichia coli, MDR strain
E. coli MG1655 parent = assay: MIC, microtiter-based liquid assay (CLSI); conditions: Escherichia coli
E. coli CAG12184 TolC = assay: MIC, microtiter-based liquid assay (CLSI); conditions: Escherichia coli, CAG12184TOLC
[1] = test system: S. pneumoniae 02J1175 Mef(A); assay: MIC, microtiter-based liquid assay (CLSI); conditions: Streptococcus pneumoniae
S. aureus 11540 MRSA = assay: MIC, microtiter-based liquid assay (CLSI); conditions: Staphylococcus aureus
K. pneumoniae 1705949 = assay: MIC, microtiter-based liquid assay (CLSI); conditions: Klebsiella pneumoniae, MDR strain
K. pneumoniae 1705966 = assay: MIC, microtiter-based liquid assay (CLSI); conditions: Klebsiella pneumoniae
A. baumannii 1705936 = assay: MIC, microtiter-based liquid assay (CLSI); conditions: Acinetobacter baumannii, MDR strain
A. baumannii 1705943 = assay: MIC, microtiter-based liquid assay (CLSI); conditions: Acinetobacter baumannii
P. aeruginosa ATCC27853 = assay: MIC, microtiter-based liquid assay (CLSI); conditions: Pseudomonas aeruginosa
P. aeruginosa 1705886 = assay: MIC, microtiter-based liquid assay (CLSI); conditions: Pseudomonas aeruginosa
P. aeruginosa 1705904 = assay: MIC, microtiter-based liquid assay (CLSI); conditions: Pseudomonas aeruginosa, MDR strain
[2] = test system: E. faecium A6349 VanA + LNZ-R; assay: MIC, microtiter-based liquid assay (CLSI); conditions: Enterococcus faecium
B. anthracis = assay: microbe, parasite or virus in culture; conditions: Bacillus anthracis; for MIC50: read-out: B. anthracis MIC50; for MIC90: read-out: B. anthracis MIC90; for MIC: read-out: B. anthracis MIC Range
Y. pestis = assay: microbe, parasite or virus in culture; conditions: Yersinia pestis; for MIC50: read-out: Y. pestis MIC50; for MIC90: read-out: Y. pestis MIC90; for MIC: read-out: Y. pestis MIC Range
B. mallei = assay: microbe, parasite or virus in culture; conditions: Burkholderia mallei; for MIC50: read-out: B. mallei MIC50; for MIC90: read-out: B. mallei MIC90; for MIC: read-out: B. mallei MIC Range
F. tularensis = assay: microbe, parasite or virus in culture; conditions: Francisella tularensis; for MIC50: read-out: F. tularensis MIC50; for MIC90: read-out: F. tularensis MIC90; for MIC: read-out: F. tularensis MIC Range
B. pseudomallei = assay: microbe, parasite or virus in culture; conditions: Burkholderia pseudomallei; for MIC50: read-out: B. pseudomallei MIC50; for MIC90: read-out: B. pseudomallei MIC90; for MIC: read-out: B. pseudomallei MIC Range
[3] = ATCC25922, read-out: MIC E. coli ATCC25922 + 50% HS
[4] = ATCC25922, read-out: MIC E. coli ATCC25922

Compound	MIC (E. coli ATCC25922; [3])	MIC (E. coli ATCC25922; [4])	MIC (E. coli 1705878)	MIC (E. coli MG1655 parent)	MIC (E. coli CAG12184 TolC)	MIC [1]	MIC (S. aureus 11540 MRSA)	MIC (K. pneumoniae 1705949)	MIC (K. pneumoniae 1705966)	MIC (A. baumannii 1705936)	MIC (A. baumannii 1705943)	MIC (P. aeruginosa ATCC27853)	MIC (P. aeruginosa 1705886)	MIC (P. aeruginosa 1705904)	MIC [2]	MIC50 (B. anthracis)	MIC90 (B. anthracis)	MIC (B. anthracis)	MIC50 (Y. pestis)	MIC90 (Y. pestis)	also measured
C[C@H](NCCCNC(=N)N)c1ccc(-n2cc3cc(-c4cc(CCC[C@@H](N)CF)cc(Cl)c4F)[nH]c3nc2=O)cc1 [Compound 17]	0.5 µg/mL	0.25 µg/mL (≈ 0.427 µM)	2 µg/mL (≈ 3.42 µM)	1 µg/mL (≈ 1.71 µM)	0.125 µg/mL (≈ 0.214 µM)	0.125 µg/mL (≈ 0.214 µM)	0.25 µg/mL (≈ 0.427 µM)	1 µg/mL (≈ 1.71 µM)	0.125 µg/mL (≈ 0.214 µM)	1 µg/mL (≈ 1.71 µM)	0.25 µg/mL (≈ 0.427 µM)	8 µg/mL (≈ 13.7 µM)	4 µg/mL (≈ 6.84 µM)	8 µg/mL (≈ 13.7 µM)	0.5 µg/mL	0.25 µg/mL (≈ 0.427 µM)	0.25 µg/mL (≈ 0.427 µM)	0.03 to 0.5 µg/mL (≈ 0.0513 to 0.855 µM)	0.25 µg/mL (≈ 0.427 µM)	0.5 µg/mL (≈ 0.855 µM)	MIC (Y. pestis): 0.03 to 0.5 µg/mL (≈ 0.0513 to 0.855 µM); MIC50 (B. mallei): 0.06 µg/mL (≈ 0.103 µM); MIC90 (B. mallei): 0.25 µg/mL (≈ 0.427 µM); MIC (B. mallei): 0.03 to 0.25 µg/mL (≈ 0.0513 to 0.427 µM); MIC50 (F. tularensis): ≤ 0.03 µg/mL; MIC90 (F. tularensis): 0.12 µg/mL (≈ 0.205 µM); MIC (F. tularensis): 0.03 to 1 µg/mL (≈ 0.0513 to 1.71 µM); MIC50 (B. pseudomallei): 8 µg/mL (≈ 13.7 µM); MIC90 (B. pseudomallei): 16 µg/mL (≈ 27.3 µM); MIC (B. pseudomallei): 1 to 16 µg/mL (≈ 1.71 to 27.3 µM)
C[C@H](N)CCCc1cc(-c2cc3cn(-c4ccc(CNCCCNC(=N)N)cc4)c(=O)nc3[nH]2)c(F)c(Cl)c1F [Compound 13]	0.25 µg/mL	0.25 µg/mL (≈ 0.438 µM)	0.25 µg/mL (≈ 0.438 µM)	0.25 µg/mL (≈ 0.438 µM)	0.25 µg/mL (≈ 0.438 µM)	0.25 µg/mL (≈ 0.438 µM)	0.25 µg/mL (≈ 0.438 µM)	0.5 µg/mL (≈ 0.876 µM)	0.25 µg/mL (≈ 0.438 µM)	4 µg/mL (≈ 7 µM)	0.25 µg/mL (≈ 0.438 µM)	2 µg/mL (≈ 3.5 µM)	2 µg/mL (≈ 3.5 µM)	4 µg/mL (≈ 7 µM)	0.5 µg/mL	≤ 0.03 µg/mL	0.12 µg/mL (≈ 0.21 µM)	0.03 to 0.12 µg/mL (≈ 0.0525 to 0.21 µM)	0.06 µg/mL (≈ 0.105 µM)	0.12 µg/mL (≈ 0.21 µM)	MIC (Y. pestis): 0.03 to 0.25 µg/mL (≈ 0.0525 to 0.438 µM); MIC50 (B. mallei): ≤ 0.03 µg/mL; MIC90 (B. mallei): 0.06 µg/mL (≈ 0.105 µM); MIC (B. mallei): 0.03 to 0.25 µg/mL (≈ 0.0525 to 0.438 µM); MIC50 (F. tularensis): ≤ 0.03 µg/mL; MIC90 (F. tularensis): ≤ 0.03 µg/mL; MIC (F. tularensis): 0.03 to 0.5 µg/mL (≈ 0.0525 to 0.876 µM); MIC50 (B. pseudomallei): 4 µg/mL (≈ 7 µM); MIC90 (B. pseudomallei): 8 µg/mL (≈ 14 µM); MIC (B. pseudomallei): 0.5 to 16 µg/mL (≈ 0.876 to 28 µM)
C[C@@H](N)CCCc1cc(Cl)c(F)c(-c2cc3cn(-c4ccc(CNCCCNC(=N)N)cc4)c(=O)nc3[nH]2)c1 [Compound 1]	0.125 µg/mL	0.125 µg/mL (≈ 0.226 µM)	1 µg/mL (≈ 1.81 µM)	0.5 µg/mL (≈ 0.904 µM)	0.06 µg/mL (≈ 0.108 µM)	0.25 µg/mL (≈ 0.452 µM)	0.125 µg/mL (≈ 0.226 µM)	2 µg/mL (≈ 3.62 µM)	0.25 µg/mL (≈ 0.452 µM)	4 µg/mL (≈ 7.23 µM)	0.25 µg/mL (≈ 0.452 µM)	4 µg/mL (≈ 7.23 µM)	2 µg/mL (≈ 3.62 µM)	8 µg/mL (≈ 14.5 µM)	4 µg/mL	0.12 µg/mL (≈ 0.217 µM)	0.25 µg/mL (≈ 0.452 µM)	0.03 to 0.25 µg/mL (≈ 0.0542 to 0.452 µM)	0.12 µg/mL (≈ 0.217 µM)	0.25 µg/mL (≈ 0.452 µM)	MIC (Y. pestis): 0.03 to 0.5 µg/mL (≈ 0.0542 to 0.904 µM); MIC50 (B. mallei): ≤ 0.03 µg/mL; MIC90 (B. mallei): 0.06 µg/mL (≈ 0.108 µM); MIC (B. mallei): 0.03 to 0.25 µg/mL (≈ 0.0542 to 0.452 µM); MIC50 (F. tularensis): ≤ 0.03 µg/mL; MIC90 (F. tularensis): ≤ 0.03 µg/mL; MIC (F. tularensis): 0.03 to 0.5 µg/mL (≈ 0.0542 to 0.904 µM); MIC50 (B. pseudomallei): 4 µg/mL (≈ 7.23 µM); MIC90 (B. pseudomallei): 4 µg/mL (≈ 7.23 µM); MIC (B. pseudomallei): 0.5 to 16 µg/mL (≈ 0.904 to 28.9 µM)
